For 17 compounds, melting point, IC50 and inhibition results are on record in patent publication US6458781B1, “Substituted diarylalkyl amides as calcium channel antagonists” (priority 1998, dated 2002).

Structures are written as SMILES. Where a name gives a salt, the structure may show the parent alone.

The target in data set [1] is T1, N-type calcium channels in IMR-32 cells (Homo sapiens, UniProt Q00975).
T1 construct: host or cells: IMR-32 cells differentiated with dibutyryl cAMP and bromodeoxyuridine
T1 sequence (Q00975 whole entry): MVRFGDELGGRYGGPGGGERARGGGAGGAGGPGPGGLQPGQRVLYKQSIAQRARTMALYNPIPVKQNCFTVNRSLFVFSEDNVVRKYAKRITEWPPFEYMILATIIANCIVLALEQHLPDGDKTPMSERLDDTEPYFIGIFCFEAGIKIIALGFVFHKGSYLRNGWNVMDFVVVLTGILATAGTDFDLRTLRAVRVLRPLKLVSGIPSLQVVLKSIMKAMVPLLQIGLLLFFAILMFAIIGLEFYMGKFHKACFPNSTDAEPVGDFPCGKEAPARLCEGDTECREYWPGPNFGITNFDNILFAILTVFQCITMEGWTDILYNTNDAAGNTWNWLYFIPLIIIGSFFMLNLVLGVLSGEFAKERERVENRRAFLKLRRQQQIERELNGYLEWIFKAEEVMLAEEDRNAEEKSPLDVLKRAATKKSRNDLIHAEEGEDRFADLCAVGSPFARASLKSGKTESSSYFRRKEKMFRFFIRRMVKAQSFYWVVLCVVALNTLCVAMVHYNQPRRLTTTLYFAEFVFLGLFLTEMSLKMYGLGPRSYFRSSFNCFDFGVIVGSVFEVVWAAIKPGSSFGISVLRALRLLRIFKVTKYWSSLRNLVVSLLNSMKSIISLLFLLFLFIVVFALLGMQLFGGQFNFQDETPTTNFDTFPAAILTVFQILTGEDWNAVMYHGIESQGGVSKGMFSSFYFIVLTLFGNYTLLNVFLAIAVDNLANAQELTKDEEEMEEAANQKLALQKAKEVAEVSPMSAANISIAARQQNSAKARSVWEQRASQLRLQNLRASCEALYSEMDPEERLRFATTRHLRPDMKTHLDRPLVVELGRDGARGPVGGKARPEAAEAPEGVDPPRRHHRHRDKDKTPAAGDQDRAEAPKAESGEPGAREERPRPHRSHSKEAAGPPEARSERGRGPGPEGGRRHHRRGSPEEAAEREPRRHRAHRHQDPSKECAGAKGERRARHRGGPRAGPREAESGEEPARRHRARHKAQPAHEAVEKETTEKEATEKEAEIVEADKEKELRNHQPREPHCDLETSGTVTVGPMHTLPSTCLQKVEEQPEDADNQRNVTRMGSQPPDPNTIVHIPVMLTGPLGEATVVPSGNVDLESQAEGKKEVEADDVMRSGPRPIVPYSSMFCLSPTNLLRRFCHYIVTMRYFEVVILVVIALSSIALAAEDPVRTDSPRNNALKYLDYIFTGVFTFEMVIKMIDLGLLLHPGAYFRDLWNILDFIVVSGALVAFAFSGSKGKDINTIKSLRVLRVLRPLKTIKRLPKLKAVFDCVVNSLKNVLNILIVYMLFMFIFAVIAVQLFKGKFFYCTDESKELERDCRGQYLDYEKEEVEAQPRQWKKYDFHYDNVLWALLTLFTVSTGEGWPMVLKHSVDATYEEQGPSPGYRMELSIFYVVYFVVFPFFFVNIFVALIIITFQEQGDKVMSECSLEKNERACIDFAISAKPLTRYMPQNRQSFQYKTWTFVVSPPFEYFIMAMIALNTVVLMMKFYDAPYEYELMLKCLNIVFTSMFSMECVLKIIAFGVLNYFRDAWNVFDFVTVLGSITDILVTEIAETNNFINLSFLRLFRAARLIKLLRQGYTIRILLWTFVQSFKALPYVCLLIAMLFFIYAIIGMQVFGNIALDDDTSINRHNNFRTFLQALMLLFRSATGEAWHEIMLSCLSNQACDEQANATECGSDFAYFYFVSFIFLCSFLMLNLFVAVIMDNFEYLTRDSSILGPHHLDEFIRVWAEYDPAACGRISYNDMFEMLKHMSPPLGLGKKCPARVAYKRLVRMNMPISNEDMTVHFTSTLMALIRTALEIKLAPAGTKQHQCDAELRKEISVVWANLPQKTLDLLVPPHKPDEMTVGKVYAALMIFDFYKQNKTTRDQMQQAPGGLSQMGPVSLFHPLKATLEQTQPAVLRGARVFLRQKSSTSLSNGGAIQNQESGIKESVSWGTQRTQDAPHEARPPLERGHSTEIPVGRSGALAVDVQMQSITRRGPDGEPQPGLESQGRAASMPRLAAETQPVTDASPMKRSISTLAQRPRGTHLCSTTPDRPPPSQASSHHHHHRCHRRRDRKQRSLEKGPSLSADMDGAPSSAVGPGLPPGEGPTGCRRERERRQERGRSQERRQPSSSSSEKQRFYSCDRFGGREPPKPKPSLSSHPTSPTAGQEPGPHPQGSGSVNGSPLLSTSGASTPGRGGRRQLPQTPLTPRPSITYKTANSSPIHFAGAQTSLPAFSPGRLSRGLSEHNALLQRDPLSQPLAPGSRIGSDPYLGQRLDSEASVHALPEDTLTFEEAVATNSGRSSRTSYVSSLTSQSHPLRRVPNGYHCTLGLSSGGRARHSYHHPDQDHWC
T1 sequence (P54289 25-956 partner limits assumed): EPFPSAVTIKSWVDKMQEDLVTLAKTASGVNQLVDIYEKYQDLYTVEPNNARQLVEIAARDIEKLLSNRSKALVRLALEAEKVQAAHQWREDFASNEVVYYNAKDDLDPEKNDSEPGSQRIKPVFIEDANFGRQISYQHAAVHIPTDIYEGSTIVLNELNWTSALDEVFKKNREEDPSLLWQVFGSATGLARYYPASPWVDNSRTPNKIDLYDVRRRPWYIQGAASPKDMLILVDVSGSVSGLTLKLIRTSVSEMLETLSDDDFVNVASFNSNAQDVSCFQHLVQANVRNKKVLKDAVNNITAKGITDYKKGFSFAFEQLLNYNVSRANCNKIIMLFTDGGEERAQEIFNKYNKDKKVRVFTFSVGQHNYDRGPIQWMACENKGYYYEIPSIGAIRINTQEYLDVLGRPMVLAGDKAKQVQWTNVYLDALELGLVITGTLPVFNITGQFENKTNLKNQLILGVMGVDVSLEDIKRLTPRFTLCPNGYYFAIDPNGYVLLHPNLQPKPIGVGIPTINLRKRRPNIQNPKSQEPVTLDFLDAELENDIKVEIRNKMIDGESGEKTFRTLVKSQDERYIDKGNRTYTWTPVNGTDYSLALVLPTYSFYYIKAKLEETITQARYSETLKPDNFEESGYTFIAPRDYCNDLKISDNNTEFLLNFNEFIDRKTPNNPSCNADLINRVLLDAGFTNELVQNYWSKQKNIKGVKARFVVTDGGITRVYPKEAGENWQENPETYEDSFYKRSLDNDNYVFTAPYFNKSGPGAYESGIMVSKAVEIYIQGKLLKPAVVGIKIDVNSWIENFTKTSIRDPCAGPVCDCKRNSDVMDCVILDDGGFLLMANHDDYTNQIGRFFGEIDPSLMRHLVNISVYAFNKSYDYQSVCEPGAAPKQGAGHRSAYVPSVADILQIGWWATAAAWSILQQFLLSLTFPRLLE
T1 sequence (P54289 957-1103 partner limits assumed): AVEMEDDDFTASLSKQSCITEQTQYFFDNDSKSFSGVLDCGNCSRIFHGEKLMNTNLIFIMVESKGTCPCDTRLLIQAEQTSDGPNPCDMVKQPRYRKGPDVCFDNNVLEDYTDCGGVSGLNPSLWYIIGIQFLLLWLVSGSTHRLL
T1 sequence (Q02641 whole entry partner): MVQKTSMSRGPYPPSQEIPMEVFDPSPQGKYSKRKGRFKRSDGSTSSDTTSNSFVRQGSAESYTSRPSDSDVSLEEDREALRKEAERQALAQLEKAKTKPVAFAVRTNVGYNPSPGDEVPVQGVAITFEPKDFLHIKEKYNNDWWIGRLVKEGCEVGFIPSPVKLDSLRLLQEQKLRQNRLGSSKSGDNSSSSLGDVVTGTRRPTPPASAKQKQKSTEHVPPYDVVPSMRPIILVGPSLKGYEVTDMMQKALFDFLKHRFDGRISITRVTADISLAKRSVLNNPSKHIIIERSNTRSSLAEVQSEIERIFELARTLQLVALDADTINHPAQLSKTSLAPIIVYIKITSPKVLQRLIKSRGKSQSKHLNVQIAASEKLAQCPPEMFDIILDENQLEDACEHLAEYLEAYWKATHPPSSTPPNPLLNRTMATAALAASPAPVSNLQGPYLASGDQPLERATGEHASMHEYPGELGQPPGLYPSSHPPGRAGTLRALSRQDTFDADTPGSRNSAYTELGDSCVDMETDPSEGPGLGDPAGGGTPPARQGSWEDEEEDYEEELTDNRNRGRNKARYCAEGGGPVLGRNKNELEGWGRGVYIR
Briefly: N-type Ca2+ channel blocking potency in IMR-32 cells using Indo-1. It is filed as cell-based. The settings on record: for IC50: IMR-32 cells, 5 μM nitrendipine present, read-out: IMR32 IC50. How it is done:
Measurement of N-type Ca^2+ Channel Blocking Potencies of Compounds in IMR-32 Cells Using the Fluorescent Ca^2+ Indicator Indo-1
IMR-32 cells are a human tumoral cell line of neural origin. […] Calcium flux into these cells may be induced by stimulation with elevated potassium concentrations. The L-channel component of calcium flux may be blocked by adding 5 μM nitrendipine. The remaining component of calcium entry into the IMR-32 cells is due to calcium flux through N-type calcium channels. Intracellular calcium concentrations are measured using the fluorescent calcium indicator Indo-1. The effect of drug concentration on calcium uptake is studied.
The IMR-32 cell line was obtained from the American Type Culture Collection (Rockville, Md.). Cells were grown in Eagle's Minimum Essential Medium with Earle's salts supplemented with 10% fetal bovine serum, 2 mM L-Gln and antibiotic/antimycotic mixture (Gibco). At approximately 80% confluency, differentiation was induced by the addition of 1 mM dibutyryl cAMP and 2.5 μM bromodeoxyuridine to the medium. After 7 to 13 days of differentiation, cells were detached using 0.5 mM EDTA and loaded with 5 μM Indo-1 acetoxymethyl ester (Molecular Probes, Eugene, Oreg.) at 30° C. for 45 minutes. Loaded cells were washed twice, resuspended (˜10^7 cells/mL) in assay buffer (10 mM HEPES/Tris pH 7.4 in Hank's Balanced Salt Solution without bicarbonate or phenol red containing 0.5% bovine serum albumin) and kept on ice until use. Fluorescence measurements were carried out in a Photon Technology International (PTI, South Brunswick, N.J.) Model RF-F3004 spectrofluorometer with dual emission monochromators using excitation at 350 nm and emission at 400 and 490 nm. The instrument was equipped with a thermostated cuvette holder with stirring capabilities as well as with a computer-controlled pump which allowed for reagent addition during measurement. Instrument control and data collection was done by PTI's OSCAR software running on an IBM compatible computer. Different concentrations of the test compounds (60 μL in dimethyl sulfoxide) were added to 5.94 mL of assay buffer containing approximately 3×10^6 loaded cells, and 5 μM Nitrendipine (in 30 μL EtOH) to block L-type Ca^2+ channels. Samples were incubated for 10 minutes at 30° C. and the aliquot into three 10×10 mm disposable acrylic cuvettes. Emission signals at 400 and 490 nm were acquired from each cuvette at 30° C. for 50 seconds. At 20 seconds after the start of reading, cells were depolarized by the addition of 160 μL of stimulation solution (1 M KCl, 68 mM CaCl2) to the cuvette via the computer-controlled pump. Ratio of dual emission signals (400/490 nm), which is proportional to intracellular Ca^2+ concentration, was plotted against time, and the difference between maximal response after stimulation and basal value (before stimulation) was determined. Values obtained in this way were plotted as a function of drug concentration. IC50 values of test compounds were calculated by fitting a four-parameter logistic function to the data using the least squares method.

Data set [2] addresses T2, L-type calcium channels in A10 cells (Rattus norvegicus, UniProt P22002).
T2 construct: which endogenously expresses L-type calcium channels; host or cells: A10 rat embryonic thoracic aorta smooth muscle cells
Briefly: L-type Ca2+ channel blocking potency in A10 cells (FLIPR). Format: cell-based. The settings on record: read-out: FLPA10 IC50. Here is the method:
Measurement of L-type Ca^2+ Channel Blocking Potencies of Compounds in A10 Cells
Calcium flux through voltage-sensitive calcium channels was assessed by time-resolved monitoring of the fluorescence of pre-loaded calcium-sensitive dyes using FLIPR, a fluorescent image plate reader (Molecular Devices Co.). The A10 smooth muscle cell line derived from embryonic thoracic aorta of the DBIX rat (ATCC, CRL-1476) which endogenously expresses L-type calcium channels. The growth media for A10 cells was Ham's F12/DME high glucose (Irvine Scientific, 9052), supplemented with 20% fetal bovine serum (HyClone Labs, A-1115-L), and 1% each of L-glutamine and antibiotic-antimycotic (same source as above).
Cells were grown to confluency and replated on black-sided 96-well plates (Costar, 3603) for use in FLIPR. Two days after replating, growth media was removed and cells were loaded at 37° C. with 100 μL media containing 1 μM Oregon Green 488 Bapta-1 dye (Molecular Probes, O-6807) for 1 to 3 hours. The dye-containing media was then washed away with buffer (composition in mM: 1.25 CaCl2, 1.2 MgSO4, 11 glucose, 10 HEPES, 3.0 KCl, 137.0 NaCl, pH 7.4 with Tris base) in a Denley Cellwash (Labsystems, CW018B). The residual buffer volume was adjusted to 50 μL. A 5 minute drug-pre-incubation period at 35° C. was initiated when 50 μL of drug-containing buffer was pipetted into the cell plate with the 96-well pipettor integrated in the FLIPR apparatus. Fluorescent counts were monitored at 20 second intervals for 360 seconds, beginning 60 seconds prior to the delivery of drug-containing buffer. Following drug addition, 100 μL aliquots of a high K^+, depolarizing stimulus (composition in mM: 1.25 CaCl2, 1.2 MgSO4, 11 glucose, 10 HEPES, 140.0 KCl, pH 7.4 with Tris base) were added to each well, and fluorescence was monitored at 1 second intervals for 120 seconds beginning 10 seconds prior to the stimulus addition. CCD camera exposure time was 0.4 seconds, laser excitation was at 488 nm with a power of 0.2-0.5W, and a 510 to 560 nm bandpass interference filter preceded the camera.
Data was analyzed as a summation of fluorescent counts above basal during the stimulation period (an approximation of area under the curve), after normalizing the data with a spatial uniformity correction (for variations in laser illumination and cell density) and a negative control correction (zero calcium increase defined as the fluorescence reading in the presence of saturating pharmacologic block of the respective calcium channel). Drug effects were expressed as percent inhibition of fluorescence from an average of 8 K^+-stimulated wells which were pre-treated in the drug incubation period with buffer only. In the A10 cells, the pharmacologic agent used to define zero calcium influx was nitrendipine (RBI, N-144) at a final concentration of 1.0×10^−6 M.

`CC(C)=CCN(C)[C@@H](CC(C)C)C(=O)NCCCC(c1ccc(F)cc1)c1ccc(F)cc1` (as salt: hydrochloride) [Example 13, (S)-4-Methyl-2-[methyl-(3-methyl-but-2-enyl)-amino]-pentanoic acid [4,4-bis-(4-fluoro-phenyl)-butyl]-amide monohydrochloride] yielded a melting point of 55 to 68 °C. Compound `CC(C)C[C@H](NC(C)C)C(=O)NCCCC(c1ccc(F)cc1)c1ccc(F)cc1` (as salt: hydrochloride) [Example 19, (S)-2-Isopropylamino-4-methyl-pentanoic acid [4,4-bis-(4-fluoro-phenyl)-butyl]-amide monohydrochloride] showed a melting point of 100 to 103 °C.

Turning to `CC(C)C[C@@H](C(=O)NCCCC(c1ccc(F)cc1)c1ccc(F)cc1)N(C)C` (as salt: hydrochloride) [Example 20, (S)-2-Dimethylamino-4-methyl-pentanoic acid [4,4-bis-(4-fluoro-phenyl)-butyl]-amide monohydrochloride], the melting point was 60 to 72 °C. On the same count and under the same terms, for `CC(C)C[C@@H](C(=O)NCCCC(c1ccc(F)cc1)c1ccc(F)cc1)N(C)C1CCCCC1` (as salt: hydrochloride) [Example 21, (S)-2-(Cyclohexyl-methyl-amino)-4-methyl-pentanoic acid [4,4-bis-(4-fluoro-phenyl)-butyl]-amide monohydrochloride] the value was 73 to 83 °C. Same read-out and setting: for `CC(C)C[C@@H](C(=O)NCCCC(c1ccc(F)cc1)c1ccc(F)cc1)N1CCOCC1` (as salt: hydrochloride) [Example 23, (S)-4-Methyl-2-morpholin-4-yl-pentanoic acid [4,4-bis-(4-fluoro-phenyl)-butyl]-amide monohydrochloride] the value was 63 to 78 °C; for `CC(C)C[C@@H](C(=O)NCCC(c1ccccc1)c1ccccc1)N(C)C1CCCCC1` (as salt: hydrochloride) [Example 25, (S)-2-(Cyclohexyl-methyl-amino)-4-methyl-pentanoic acid (3,3-diphenyl-propyl)-amide monohydrochloride], 67 to 86 °C; for `CC(C)C[C@@H](C(=O)NCCCC(c1ccc(F)cc1)c1ccc(F)cc1)N(C)C1CCOCC1` (as salt: hydrochloride) [Example 27, (S)-4-Methyl-2-[methyl-(tetrahydro-pyran-4-yl)-amino]-pentanoic acid [4,4-bis-(4-fluoro-phenyl)-butyl]-amide monohydrochloride], 75 to 92 °C. In turn, `CC(C)C[C@H](NC(C)C)C(=O)N1CCN(C(c2ccc(F)cc2)c2ccc(F)cc2)CC1` (as salt: hydrochloride) [Example 49, (S)-1-{4-[Bis-(4-fluoro-phenyl)-methyl]-piperazin-1-yl}-2-isopropylamino-4-methyl-pentan-1-one monohydrochloride] displayed a melting point of 100 to 103 °C. As for `CC(C)N[C@H](C(=O)NCCCC(c1ccc(F)cc1)c1ccc(F)cc1)C(C)C` (as salt: hydrochloride) [Example 65, (S)-N-[4,4-Bis-(4-fluoro-phenyl)-butyl]-2-isopropylamino-3-methyl-butyramide], the melting point lay in the range of 72 to 80 °C.

Compound `CCC(C)N[C@H](C(=O)NCCCC(c1ccc(F)cc1)c1ccc(F)cc1)C(C)C` (stereo partly drawn) (as salt: hydrochloride) [Example 66, (S)-N-[4,4-Bis-(4-fluoro-phenyl)-butyl]-2-sec-butylamino-3-methyl-butyramide] displayed a melting point of 77 to 81 °C. `CC(C)C[C@@H](C(=O)NCCCC(c1ccc(F)cc1)c1ccc(F)cc1)N(C)C(C)C` (as salt: hydrochloride) [Example 68, (S)-2-(Isopropyl-methyl-amino)-4-methyl-pentanoic acid [4,4-bis-(4-fluoro-phenyl)-butyl]-amide]: the melting point fell in the range of 155 to 156 °C. With `CC(C)[C@@H](C(=O)NCCCC(c1ccc(F)cc1)c1ccc(F)cc1)N(C)C1CCCCC1` (as salt: hydrochloride) [Example 69, (S)-N-[4,4-Bis-(4-fluoro-phenyl)-butyl]-2-(cyclohexyl-methyl-amino)-3-methyl-butyramide], the melting point is 82 to 86 °C. `CC(C)[C@H](NC1CCCCC1)C(=O)NCCCC(c1ccc(F)cc1)c1ccc(F)cc1` (as salt: hydrochloride) [Example 70, (S)-N-[4,4-Bis-(4-fluoro-phenyl)-butyl]-2-cyclohexylamino-3-methyl-butyramide] displayed a melting point of 49 to 53 °C. Take `CN[C@H](C(=O)NCCCC(c1ccc(F)cc1)c1ccc(F)cc1)C(C)C` (as salt: hydrochloride) [Example 73, (S)-3-Methyl-2-methylamino-butanoic acid [4,4-bis-(4-fluorophenyl)-butyl]-amide monohydrochloride]: the melting point was in the range of 85 to 90 °C. In the case of `CC(C)C[C@H](NC(=O)N1CCCCCC1)C(=O)NCC(c1ccccc1)c1ccccc1` [Example 4, (S)-Azepane-1-carboxylic acid [1-(2,2-diphenyl-ethylcarbamoyl)-3-methyl-butyl]-amide], the melting point lay within 194 to 195 °C. Moreover, the IC50 in data set [1] amounted to 3.3 µM. For `CC(C)C[C@H](NC(=O)N1CCCCCC1)C(=O)NCCC(c1ccccc1)c1ccccc1` [Example 5, (S)-Azepane-1-carboxylic acid [1-(3,3-diphenyl-propylcarbamoyl)-3-methyl-butyl]-amide], in that order: 144 to 145 °C and 1.8 µM. For the compound `CC(C)[C@@H](C(=O)NCCCC(c1ccc(F)cc1)c1ccc(F)cc1)N(C)C1CCCCC1` [Example 69, (S)-N-[4,4-Bis-(4-fluoro-phenyl)-butyl]-2-(cyclohexyl-methyl-amino)-3-methyl-butyramide], the inhibition at 1 µM in data set [1] (IMR-32, IMR-32 cells, at 1 μM, read-out: IMR32 % blockage at 1 μM) was found to be 34%. Besides, the inhibition at 10 µM in data set [1] (IMR-32, IMR-32 cells, at 10 μM, read-out: IMR32 % blockage at 10 μM) came to 99%. Further, in data set [2], the IC50 was 0.4 µM.
